PubChem BioAssay (NCI)
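All cell lines were grown in 96-well plates and treated with compound for 48 hours. GI50: concentration for 50% inhibition of growth. TGI: concentration producing complete growth inhibition.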

Legend:
Test in all cases: NCI anticancer screen, dose series, 48 h
SNB-78 CNS = tested on: SNB-78 CNS
UO-31 renal = tested on: UO-31 renal
HOP-62 NSCLC = tested on: HOP-62 NSCLC
SK-OV-3 ovarian = tested on: SK-OV-3 ovarian
NCI-H522 lung = tested on: NCI-H522 lung
KM12 colon = tested on: KM12 colon
MOLT-4 leukemia = tested on: MOLT-4 leukemia
SK-MEL-2 melanoma = tested on: SK-MEL-2 melanoma
M19-MEL melanoma = tested on: M19-MEL melanoma
HOP-18 NSCLC = tested on: HOP-18 NSCLC
DLD-1 colon = tested on: DLD-1 colon
IGROV1 ovarian = tested on: IGROV1 ovarian

SMILES	TGI (SNB-78 CNS) [µM]	TGI (UO-31 renal) [µM]	TGI (HOP-62 NSCLC) [µM]	TGI (SK-OV-3 ovarian) [µM]	TGI (NCI-H522 lung) [µM]	TGI (KM12 colon) [µM]	TGI (MOLT-4 leukemia) [µM]	TGI (SK-MEL-2 melanoma) [µM]	TGI (M19-MEL melanoma) [µM]	TGI (HOP-18 NSCLC) [µM]	TGI (DLD-1 colon) [µM]	TGI (IGROV1 ovarian) [µM]	GI50 (UO-31 renal) [µM]	GI50 (HOP-62 NSCLC) [µM]	GI50 (SK-OV-3 ovarian) [µM]	GI50 (NCI-H522 lung) [µM]	GI50 (KM12 colon) [µM]	GI50 (MOLT-4 leukemia) [µM]	GI50 (SK-MEL-2 melanoma) [µM]	GI50 (IGROV1 ovarian) [µM]
O=C(O)c1ccc2c(c1)C(=O)N(c1ccc(S(=O)(=O)c3ccc(N4C(=O)c5ccc(C(=O)O)cc5C4=O)cc3)cc1)C2=O	> 100	> 100	> 100	> 100	> 100	> 100	> 100	> 100	> 100											
Cc1ccc(S(=O)(=O)OCOS(=O)(=O)c2ccc(C)cc2)cc1		> 100	> 100	> 100	> 100	> 100	> 100	> 100	> 100	> 100	> 100	> 100								
NS(=O)(=O)c1ccc(N=Nc2ccc[nH]c2=O)cc1		> 100	> 100	> 100	> 100	> 100	> 100	> 100				> 100								
C=C1c2nc3ccccc3n2C=C(c2cccc(Cl)c2)N1Cc1ccc(OC)cc1		33.7	39.8	> 100	1.1	16.6	11.2	68				15.8	1.92	2.35	2.88	0.221	1.76	2.57	0.636	0.471
CCC12C=CCN(CCc3c([nH]c4ccccc34)/C=C\1)C2 (centres undefined)		> 100	> 100		> 100	> 100	> 100	> 100	> 100	> 100		> 100								
CN1CCC2(CC1)N=C(SCC(=O)Nc1cnc3ccccc3c1)C(c1ccc(Br)cc1)=N2		2.68	14.7	15.9	3.82	6.55	4.37	3.88				4.19	1.37	3.42	4.25	1.91	2.62	1.93	1.93	1.77
CC1=CC(=O)N(c2cccc3c(N4C(=O)C=C(C)C4=O)cccc23)C1=O		4.44	> 69.3	> 100	1.79	34	11.1	> 100				16.2	1.78	28.3	53	0.693	11.3	3.29	31.5	3.55
N#C/C(=C\c1c(O)cc(O)cc1O)C(N)=O	> 100	> 100	> 100	> 100	> 100	> 100	> 100	> 100			> 100									
COc1ccc2c(c1)C(=Nc1ccc(F)c(Cl)c1)c1c-2c(Nc2ccc(F)c(Cl)c2)nc2ccccc12		> 100	32.4	98.6	> 100	> 100	41.3	> 71.8				> 100	> 100	13.7	18.8	44.3	> 100	21.2	23.6	30.1
c1ccc(-c2[nH]ncc2-c2ccnc(-c3ccc(OCCN4CCOCC4)cc3)c2)nc1		> 25	> 25	> 25	> 25	> 25	> 25	> 25				> 25	24.3	> 25	> 25	> 25	> 25	> 25	> 25	> 25
COc1ccc(CN2C(=O)[C@@H]3Cc4c(OC)c(C)c(OC)c(OC)c4[C@H](/C2=C\c2cc(OC)c(OC)c(C)c2OC)N3C(=O)OC(C)C)cc1		> 100	> 100	> 100	> 100	> 100	> 100	> 100	> 100	> 100	> 100	> 100								
O=C1/C(=C\c2ccc(F)cc2)CN(C(=O)c2ccccc2F)C/C1=C\c1ccc(F)cc1		2.94	4.66	4.69	3.15	1.32	7.49	4.61				3.62	1.49	2.04	2.23	1.61	0.371	1.72	2.04	1.82
O=C(Nc1ccncc1)C(=O)c1cn(S(=O)(=O)c2cccc(Cl)c2)c2ccccc12		> 100	48.1	> 100	16.9	> 100	> 100	> 100				> 100	11.7	7.26	30.2	2.41	3.96	5.55	11	24.1
O=C1C=C(NCCO)c2nccc3c2c1nc1ccccc13		> 100	57.8	> 100	85	> 100	> 100	88.2				> 100	24.6	12.3	80.1	22.5	21	5.94	27.7	20.4
COc1ccc(Oc2nc3cc(N)cc(N)c3nc2-c2ccccc2)cc1		> 100	40.8	55	> 100	> 100	93.9	87.5				> 100	28.5		25.5	31.4	37.4	5.31	25.1	24.9
Cc1ccc(N(C=O)c2c([N+](=O)[O-])cc([N+](=O)[O-])c3c2=[N+]([O-])CN=3)cc1		> 100	> 100	> 100	48.2	> 100	80.4	42.2				> 100								
COc1cc(-c2nn(-c3ccc(NC(=O)Nc4cc(C(F)(F)F)cc(C(F)(F)F)c4)cc3)cc2-c2ccncc2)ccc1Cl		3.22	3.1	3.09	5.99	3.09	> 100	3.43				8.25	1.34	1.51	1.55	2.25	1.34	3.28	1.7	2.65
